“Also recorded” adds a separate entry of the source. Like-named read-outs stand apart in the source and are kept apart here.
Legend:
HEK293 cells = assay: WST-1 cell cytotoxicity assay in HEK293 cells; format: cell-based; details: WST-1, 48 h
Experimental: (§1) The WST-1 cytotoxicity assay evaluated cytotoxicity in effector cells (Jurkat cells) (Fig. 2A) and target cells (HEK293 cells) (Fig. 2B). The OD value that resulted from WST-1 reagent dye formation strongly correlated with the number of metabolically live cells. To further characterize cytotoxicity tolerance, CC50 (cytotoxic concentration 50%) values were calculated and are shown in Table 1. […] Doses of compounds in the screening assay were based on the CC50 values of each cell line. Thus, screening concentrations of CH-1, -2, -3, -4 and -6 were 0, 10, 20 and 40 µM, respectively, while the concentrations for CH-5 were 0, 0.1, 1 and 10 µM, respectively. To ensure reliable screening, anti-PD-1 neutralizing antibody (Cat No. 71120) was used as a positive control for inhibiting the interaction of PD-1/PD-L1, while HEK293 cells transfected with control plasmid served as the negative control. These groups were treated with increasing concentrations of anti-PD-1 neutralizing antibody (0, 0.1, 1 and 10 µg/mL) and luminescence intensity was determined after treatments.
(§2) Figure 2 In vitro screening of leading compounds. (A) Jurkat cells and (B) HEK293 cells were treated with six leading compounds to test cytotoxicity. Cells were seeded into 96-well plates at a density of 7 × 10^3/well and incubated overnight. The cells were then treated for 48 h with different concentrations (0, 10, 20, 40, and 80 µM) of the six CH compounds. At 48 h, cell cytotoxicity WST-1 assays were performed. The x-axis indicates treatment concentrations, while the y-axis indicates the percentage of cell viability (each absolute absorbance value [abs. 450 nm–630 nm] was normalized with the controls). (C) The capacity of the CH compounds to inhibit the PD-1/PD-L1 interaction was tested using the bioluminescent cell-based assay. Effector cells (growth-arrested reporter Jurkat cells) were preincubated with anti-PD-1 neutralizing antibody (Cat No. 71120), DMSO, or each of the CH compounds. The activity of luciferase was determined as an indicator of cell activation. The graphs present mean ± SD (standard deviation) values from at least three independent experiments. (D) After overnight incubation, KG-1 cells were treated for 48 h with increasing concentrations of the CH compounds (0, 10, 20, 40, or 80 µM). (E) KG-1 cells were incubated with CH compounds prior to sPD-L1-Atto staining. Flow cytometry determined binding of the Ni–NTA-labeled sPD-L1 (PD-L1-Atto) complex to KG-1 cells expressing PD-1. Cell staining (Atto-subset) was blocked in the presence of the CH compounds. The experimental groups are indicated as (a) KG-1/PBS, (b) KG-1/Atto dye, (c) KG-1/sPD-L1/Atto dye, (d) KG-1/sPD-L1/Atto dye/CH-1, (e) KG-1/sPD-L1/Atto dye/CH-2, (f) KG-1/sPD-L1/Atto dye/CH-3, (g) KG-1/sPD-L1/Atto dye/CH-4, (h) KG-1/sPD-L1/Atto dye/CH-5, (i) KG-1/sPD-L1/Atto dye/CH6. (F) The cell staining data from (E) are normalized and quantified as relative MFI values. (G) At 48 h, PD-1 protein (20 µg/well) expression was determined by Western blotting. The bar graphs present the mean ± SD (standard deviation) values from three independent experiments. *p < 0.05, **p < 0.01, ***p < 0.001. TEXT PRINTED IN THE PICTURE: (E) d.: 33.1 % | (E) e.: 38.1 % | (E) f.: 52.9 % | (E) g.: 4.01 % | (E) h.: 38.35 % | (E) i.: 49.35 % DOUBTS OF THE COPYIST ABOUT THIS PICTURE: Panel E: the picture labels the histograms only with the sub-panel letters a.-i.; it prints no compound name or measure beside the percentages, so the letters are used as labels. / Panel E: sub-panels a. (3.52 %), b. (4.59 %) and c. (53.9 %) were left out because they appear to be controls without a test compound. / Panel E, small print: d. 33.1 % (3 or 8), e. 38.1 % (8 or 3), f. 52.9 % (9 or 8), h. 38.35 % (3, 5 and 8 uncertain) and i. 49.35 % (9, 3 and 5 uncertain) are best readings.
(§3) Figure 3 In vitro inhibition by the CH-4 analog of the PD-1/PD-L1 interaction. […]

Jurkat cells = assay: WST-1 cell cytotoxicity assay in Jurkat cells; format: cell-based; details: WST-1, 48 h
Experimental: as §1, §2, §3

KG-1 cells = assay: WST-1 cell cytotoxicity assay in KG-1 cells; format: cell-based; details: 10 µM, 48 h
Experimental: as §2
Using the WST-1 assay, CH compound cytotoxicities were quantified at different concentrations in KG-1 cells (Fig. 2D). […] The data indicated an appropriate concentration for testing inhibition of the PD-1/sPD-L1 interaction by flow cytometry. To clarify the inhibitory qualities of CH compounds in sPD-L1/PD-1 interactions, His-tagged sPD-L1 recombinant protein was labeled with Ni–NTA-conjugated fluorescent dye (Atto) and flow cytometry analysis was performed (Fig. 2E). […] When KG-1 cells were treated with increasing concentrations of CH-4, PD-1 expression was unchanged (Fig. 2G).
The WST-1 assay assessed cell cytotoxicity. Briefly, cells were seeded in 96-well plates at a density of […] (100 μL/well) with 10% FBS in the medium and incubated for 48 h, before undergoing a further 1 h of incubation at 37 °C with 10 μL of WST-1 solution added to each well. Cell viability was quantified by colormetric detection using an ELISA plate reader (Beckman Coulter PARADIGM Detection Platform; Beckman Coulter, IL, USA) at absorbance values of 450 nm and 690 nm to generate an optical density proportional to the relative abundance of live cells in the wells.

PD-1/PD-L1 interaction = target: T1, PD-1/PD-L1 interaction (Homo sapiens, UniProt Q15116); assay: Cell-based PD-1/PD-L1 checkpoint assay (bioluminescent NFAT-luciferase, Jurkat effector cells / PD-L1/TCR HEK293 target cells); details: CH compounds 0, 10, 20, 40 µM; CH-4 effect at 10 µM
T1 construct: expressed in transfected cells
From the text: Protein docking analysis identified six potential SMIs targeting PD-1: CH-1, CH-2, CH-3, CH-4, CH-5, and CH-6. To evaluate their capacity to inhibit the PD-1/PD-L1 interaction, we used a cell-based PD-1/PD-L1 inhibitor screening approach consisting of a bioluminescent cell-based assay containing two main components; genetically manipulated effector cells (growth-arrested reporter Jurkat cells) and engineered PD-L1/TCR-overexpressed HEK293 cells (target cells). In this assay, PD-1-expressed effector cells were genetically manipulated with the nuclear factor of activated T-cells (NFAT)-associated luciferase reporter gene. We used HEK293 cells for transient overexpression of PD-L1 and an engineered TCR activator as target cells. When the two cells were co-cultivated, the PD-1/PD-L1 interaction prevented TCR activation and suppressed NFAT-induced luciferase activity.
The WST-1 cytotoxicity assay evaluated cytotoxicity in effector cells (Jurkat cells) (Fig. 2A) and target cells (HEK293 cells) (Fig. 2B). The OD value that resulted from WST-1 reagent dye formation strongly correlated with the number of metabolically live cells. […] These groups were treated with increasing concentrations of anti-PD-1 neutralizing antibody (0, 0.1, 1 and 10 µg/mL) and luminescence intensity was determined after treatments. […]

[1] = WST-1 cell cytotoxicity assay in HEK293 cells; format: cell-based; details: human, HEK293 cells, WST-1, 48 h
Experimental: as §1, §2, §3

[2] = WST-1 cell cytotoxicity assay in Jurkat cells; format: cell-based; details: human, Jurkat cells, WST-1, 48 h
Experimental: as §1, §2, §3

PD-1 protein = assay: Western blotting of PD-1 protein expression in KG-1 cells; format: cell-based; details: increasing concentrations, 48 h
Experimental: (§4) Figure 2 In vitro screening of leading compounds. (A) Jurkat cells and (B) HEK293 cells were treated with six leading compounds to test cytotoxicity. Cells were seeded into 96-well plates at a density of 7 × 10^3/well and incubated overnight. The cells were then treated for 48 h with different concentrations (0, 10, 20, 40, and 80 µM) of the six CH compounds. At 48 h, cell cytotoxicity WST-1 assays were performed. The x-axis indicates treatment concentrations, while the y-axis indicates the percentage of cell viability (each absolute absorbance value [abs. 450 nm–630 nm] was normalized with the controls). […] The activity of luciferase was determined as an indicator of cell activation. […] Flow cytometry determined binding of the Ni–NTA-labeled sPD-L1 (PD-L1-Atto) complex to KG-1 cells expressing PD-1. […] (F) The cell staining data from (E) are normalized and quantified as relative MFI values. (G) At 48 h, PD-1 protein (20 µg/well) expression was determined by Western blotting. […] 49.35 % (9, 3 and 5 uncertain) are best readings.
Figure 3 In vitro inhibition by the CH-4 analog of the PD-1/PD-L1 interaction. […] The x-axis indicates treatment concentrations, while the y-axis indicates the percentage of cell viability (each absolute absorbance value [abs. 450 nm–630 nm] was normalized with the controls). […]

PD-1/sPD-L1 interaction = target: T2, PD-1/sPD-L1 interaction (Homo sapiens, UniProt Q15116); assay: Flow cytometry of sPD-L1-Atto binding to KG-1 cells expressing PD-1; format: cell-based; details: Ni-NTA-labeled sPD-L1
T2 construct: endogenous in cells; host or cells: KG-1 cells (ATCC)
Experimental: as §4, with “controls). (C) The capacity of the CH compounds to inhibit the PD-1/PD-L1 interaction was tested using the bioluminescent cell-based assay.” for “controls).”
Using the WST-1 assay, CH compound cytotoxicities were quantified at different concentrations in KG-1 cells (Fig. 2D). […]

[3] = mean ± SD, Table 1, read-out: CC50 293 cells
[4] = read-out: CC50 HEK293 cells (tolerance)
[5] = mean ± SD, Table 1, read-out: CC50 Jurkat cells
[6] = read-out: CC50 Jurkat cells (tolerance)

T1 sequence (Q15116 25-288): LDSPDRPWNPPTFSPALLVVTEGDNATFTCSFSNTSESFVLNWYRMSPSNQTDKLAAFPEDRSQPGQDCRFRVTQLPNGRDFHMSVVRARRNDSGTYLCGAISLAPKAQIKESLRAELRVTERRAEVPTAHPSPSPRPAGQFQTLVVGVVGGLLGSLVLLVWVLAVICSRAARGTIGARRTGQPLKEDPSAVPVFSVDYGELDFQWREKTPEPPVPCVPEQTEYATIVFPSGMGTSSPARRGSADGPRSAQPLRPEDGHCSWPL
T2 sequence (Q15116 25-288): as above

SMILES	CC50 (HEK293 cells; [3])	CC50 (HEK293 cells; [4])	CC50 (Jurkat cells; [5])	CC50 (Jurkat cells; [6])	cytotoxicity to KG-1 cells (KG-1 cells)	other results
Cc1ccccc1NC(=O)C(=O)CC(=O)c1sc(Nc2ccccc2[N+](=O)[O-])nc1C [CH-1]	46.9 ± 10.2 µM	> 20 µM	133 ± 5.1 µM	> 20 µM	low cytotoxicity	–
COc1c(C(=O)Nc2ccc(C3=NCCN3)cc2)cccc1C(=O)Nc1ccc(C2=NCCN2)cc1 [CH-2]	151 ± 32.5 µM	> 20 µM	94.9 ± 1.97 µM	> 20 µM	low cytotoxicity	–
COc1cc(-c2ccc(NC(=O)CSC(N)=O)c(OC)c2)ccc1NC(=O)CSC(N)=O [CH-3]	78.1 ± 4.95 µM	> 20 µM	212 ± 46.5 µM	> 20 µM	low cytotoxicity	–
O=C(Nc1ccccc1)c1cc2ccccc2oc1=O [CH-4.9]	–	–	–	–	–	concentration associated with increasing cytotoxicity in HEK293 cells (HEK293 cells; Fig. 3A): exceeding 20 µM; cytotoxicity in Jurkat cells (Jurkat cells; up to 100 µM, Fig. 3A): neither analog showed any evidence of cytotoxicity; inhibitory capacity for the PD-1/PD-L1 interaction (luciferase activity) (PD-1/PD-L1 interaction): failed to inhibit
COc1ccc(N=Nc2ccc3oc(=O)c(C(=O)Nc4ccc(OC)cc4)cc3c2)cc1 [CH-4]	–	–	–	–	low cytotoxicity	CC50 at 48 h [1, 3]: 18.9 ± 1.53 µM; CC50 at 48 h [1, 4]: > 20 µM; CC50 at 48 h [2, 5]: 30.3 ± 1.3 µM; CC50 at 48 h [2, 6]: > 20 µM; inhibitory capacity for the PD-1/PD-L1 interaction (luciferase activity) (PD-1/PD-L1 interaction): potential inhibitory capacity; PD-1 protein expression (PD-1 protein): unchanged; inhibition of sPD-L1 binding to KG-1 cells (shift in staining/fluorescence intensity) (PD-1/sPD-L1 interaction): slight, yet significant, shift in staining intensity; also recorded: significantly decreased the shift in fluorescence intensity
O=c1c(/C=C/c2c(O)ccc3ccccc23)nnc2sc(-c3cccc([N+](=O)[O-])c3)nn12 [CH-5]	8.52 ± 1.74 µM	–	10.6 ± 2.67 µM	–	sensitized	–
C/C(=N\NC(=O)CCSCCC(=O)N/N=C(\C)c1ccccc1)c1ccccc1 [CH-6]	113 ± 26.1 µM	> 20 µM	103.4 ± 0.94 µM	> 20 µM	low cytotoxicity	–
